Assay results from ChEMBL document CHEMBL3044766, “Synthesis, antitubercular and antifungal activities of heteroaryl-substituted oxiranes derived from BaylisHillman adducts” (2012).
The source made the active and inactive calls. No cut-off for these calls is given here.

system: Candida albicans; assay: Antifungal activity against Candida albicans at 100 ug/ml after 24 hr by disk diffusion method; type: functional; settings: read-out: DIZ

SMILES | zone of inhibition at 100 µg/mL
COC(=O)C1(C(O)c2cccs2)CO1 (stereo not given) | 12 mm
COC(=O)C1(C(O)c2ccco2)CO1 (stereo not given) | 7 mm
CCOC(=O)C1(C(O)c2ccco2)CO1 (stereo not given) | 8 mm
COC(=O)C1(C(O)c2ccc[nH]2)CO1 (stereo not given) | 9 mm
Clc1ccccc1C(c1ccccc1)(c1ccccc1)n1ccnc1 [CLOTRIMAZOLE] | 20 mm
CCOC(=O)C1(C(O)c2cccs2)CO1 (stereo not given) | 9 mm
CCOC(=O)C1(C(O)c2ccc[nH]2)CO1 (stereo not given) | 10 mm

system: Mycobacterium tuberculosis; assay: Growth inhibition of Mycobacterium tuberculosis H37Rv at 100 ug/ml after 4 weeks by Lowenstein-Jensen method; type: functional, organism-based; settings: not given

SMILES | growth inhibition (GI)
COC(=O)C1(C(O)c2cccs2)CO1 (stereo not given) | Active
COC(=O)C1(C(O)c2ccco2)CO1 (stereo not given) | Active
CCOC(=O)C1(C(O)c2ccco2)CO1 (stereo not given) | Active
COC(=O)C1(C(O)c2ccc[nH]2)CO1 (stereo not given) | Active
NC(=O)c1cnccn1 | Active
CCOC(=O)C1(C(O)c2cccs2)CO1 (stereo not given) | Active
CCOC(=O)C1(C(O)c2ccc[nH]2)CO1 (stereo not given) | Active

system: Mycobacterium tuberculosis; assay: Growth inhibition of Mycobacterium tuberculosis H37Rv at 10 ug/ml after 4 weeks by Lowenstein-Jensen method; type: functional, organism-based; settings: not given

SMILES | growth inhibition (GI)
COC(=O)C1(C(O)c2cccs2)CO1 (stereo not given) | Active
COC(=O)C1(C(O)c2ccco2)CO1 (stereo not given) | Active
CCOC(=O)C1(C(O)c2ccco2)CO1 (stereo not given) | Active
COC(=O)C1(C(O)c2ccc[nH]2)CO1 (stereo not given) | Active
NC(=O)c1cnccn1 | Active
CCOC(=O)C1(C(O)c2cccs2)CO1 (stereo not given) | Active
CCOC(=O)C1(C(O)c2ccc[nH]2)CO1 (stereo not given) | Active

system: Mycobacterium tuberculosis; assay: Growth inhibition of Mycobacterium tuberculosis H37Rv at 1 ug/ml after 4 weeks by Lowenstein-Jensen method; type: functional, organism-based; settings: not given

SMILES | growth inhibition (GI)
COC(=O)C1(C(O)c2cccs2)CO1 (stereo not given) | Active
COC(=O)C1(C(O)c2ccco2)CO1 (stereo not given) | Active
CCOC(=O)C1(C(O)c2ccco2)CO1 (stereo not given) | Active
COC(=O)C1(C(O)c2ccc[nH]2)CO1 (stereo not given) | Active
NC(=O)c1cnccn1 | Active
CCOC(=O)C1(C(O)c2cccs2)CO1 (stereo not given) | Active
CCOC(=O)C1(C(O)c2ccc[nH]2)CO1 (stereo not given) | Active

system: Aspergillus fumigatus; assay: Antifungal activity against Aspergillus fumigatus at 100 ug/ml after 24 hr by disc diffusion method; type: functional; settings: read-out: DIZ

SMILES | zone of inhibition at 100 µg/mL
COC(=O)C1(C(O)c2cccs2)CO1 (stereo not given) | 12 mm
COC(=O)C1(C(O)c2ccco2)CO1 (stereo not given) | 8 mm
CCOC(=O)C1(C(O)c2ccco2)CO1 (stereo not given) | 9 mm
COC(=O)C1(C(O)c2ccc[nH]2)CO1 (stereo not given) | 12 mm
Clc1ccccc1C(c1ccccc1)(c1ccccc1)n1ccnc1 [CLOTRIMAZOLE] | 21 mm
CCOC(=O)C1(C(O)c2cccs2)CO1 (stereo not given) | 10 mm
CCOC(=O)C1(C(O)c2ccc[nH]2)CO1 (stereo not given) | 10 mm
